{"source": "patent US20110200656A1", "about": "“ANTIMICROBIAL CURRENCY, MATERIAL AND METHOD” (MICROBAN PRODUCTS COMPANY, priority 2007, published 2011)", "key": {"[1]": {"system": "Staphylococcus aureus ATCC 6538", "test": "Quantitative evaluation of antibacterial activity of bank note samples, modified AATCC 100-1993", "conditions": "625 ppm agent in acrylate coating", "experimental": "(§1) For the testing, a protocol was selected which measured the percent kill in a bacterial population over a period of time when put in contact with banknote samples.\n(§2) Tests were conducted against two common bacteria: the gram-positive Staphylococcus aureus, which is found almost everywhere in and on the body, and which can cause numerous infections; as well as the gram-negative Escherichia coli, which is a common “bathroom bacteria” that can cause severe food poisoning. With good results against these organisms, efficacy against a broad spectrum of other bacteria can be predicted.\n(§3) Ten samples marked Secu-GB1-A-260503, Secu-GB2-A-260503, Secu-GB3-A-260503, Secu-GB4-A-260503, Secu-GB5-A-260503, Secu-C-A-260503, Secu-C-B-260503, Secu-C-C-260503, Secu-C-D-260503 and Secu-C-E-260503 were manufactured employing 2,4,4′-trichloro-2′-hydroxydiphenyl ether in the acrylate composition applied as a coating layer on the planar material.\n(§4) Samples from the bank note prototypes were evaluated for their antibacterial activity in accordance with the modified method AATCC 100-1993. The tests were performed against the organisms Staphylococcus aureus ATCC 6538 and Escherichia coli ATCC 8739."}, "[2]": {"system": "Escherichia coli ATCC 8739", "test": "Quantitative evaluation of antibacterial activity of bank note samples, modified AATCC 100-1993", "conditions": "625 ppm agent in acrylate coating", "experimental": "as §1, §2, §3, §4"}}}
{"smiles": "Oc1cc(Cl)ccc1Oc1ccc(Cl)cc1Cl", "note": "[2,4,4′-trichloro-2′-hydroxydiphenyl ether]", "values": [{"measurement": "log reductions (in words)", "setting": "[1]", "value": "strong log reductions"}, {"measurement": "log reductions (in words)", "setting": "[2]", "value": "strong log reductions"}]}
